One experiment relates to NO. Nature of the experiment: NO inhibition, ELISA kit. Type of experiment: biochemical. The conditions noted are these: mean ± SD, average of three determinations. The procedure:
(§1) The 50% inhibitory concentration (IC50) values were calculated from the concentration-inhibition response curve.
(§2) Cyclooxygenases (COX-1 and COX-2) were measured by an enzyme immunoassay (EIA) kit (Cayman Chemical, Ann Arbor, MI, USA) according to the manufacturer’s instructions. TNF-R2, NF-KB, and NO were measured by ELISA kit (#79756, BPS Bioscience, USA), (#CSB-EL015761HU, Cusabio, China).

The target of another experiment is T1, TNF-R2 (Homo sapiens, UniProt P20333).
T1 construct: purchased BPS Bioscience 79756
T1 sequence (P20333 23-257 limits assumed): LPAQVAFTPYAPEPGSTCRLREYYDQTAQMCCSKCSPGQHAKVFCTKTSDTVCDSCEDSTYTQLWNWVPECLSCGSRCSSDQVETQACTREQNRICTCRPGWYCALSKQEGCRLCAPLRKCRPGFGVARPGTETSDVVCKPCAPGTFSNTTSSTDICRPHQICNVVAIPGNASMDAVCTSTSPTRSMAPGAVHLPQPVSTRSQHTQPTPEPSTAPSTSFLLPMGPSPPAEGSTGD
Nature of the experiment: TNF-R2 binding activity, ELISA kit. The conditions noted are these: mean ± SD, average of three determinations.

A further experiment deals with NF-KB. Nature of the experiment: NF-KB inhibition, ELISA kit. Type of experiment: biochemical. The following applies: for NF- KB IC50 ± SD: mean ± SD, average of three determinations. The procedure: as §1, §2
Experiment [1] has as its target T2, COX-2 (Homo sapiens, UniProt P35354).
T2 sequence (P35354 18-604): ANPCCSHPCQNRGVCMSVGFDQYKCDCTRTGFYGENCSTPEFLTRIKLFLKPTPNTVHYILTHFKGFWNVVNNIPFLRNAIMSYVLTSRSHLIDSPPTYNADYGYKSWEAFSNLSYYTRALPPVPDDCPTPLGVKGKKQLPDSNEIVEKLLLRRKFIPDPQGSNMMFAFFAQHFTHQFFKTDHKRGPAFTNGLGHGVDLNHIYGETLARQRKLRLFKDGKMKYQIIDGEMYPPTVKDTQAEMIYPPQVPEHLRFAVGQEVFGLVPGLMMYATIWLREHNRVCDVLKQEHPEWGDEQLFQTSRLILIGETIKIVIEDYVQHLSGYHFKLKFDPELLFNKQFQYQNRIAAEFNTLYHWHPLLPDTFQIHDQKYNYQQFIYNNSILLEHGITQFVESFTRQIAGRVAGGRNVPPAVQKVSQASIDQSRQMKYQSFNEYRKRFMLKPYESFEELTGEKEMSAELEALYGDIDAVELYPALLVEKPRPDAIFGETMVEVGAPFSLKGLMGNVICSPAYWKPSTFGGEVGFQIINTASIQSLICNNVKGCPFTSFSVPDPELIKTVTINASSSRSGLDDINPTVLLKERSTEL
Nature of the experiment: COX-2 inhibition, enzyme immunoassay (EIA) kit.
Method: All enzyme inhibition activities were performed in triplicate and were examined using the sample t-test using the SPSS 26.0 program at (p < 0.05) (Table 1).

The next experiment deals with COX-1 (Ovis aries, UniProt P05979). More on the design: method as in ref 15 (Zhang et al.). The following applies: ref 15 (Zhang et al.); cited from earlier work.
In experiment [2] the target is T2, COX-2. The arrangement: purchased Cayman Chemical; method as in ref 15 (Zhang et.al 2006). The following applies: ref 15 (Zhang et.al 2006); cited from earlier work.

Chain of COX-1 (P05979 25-600): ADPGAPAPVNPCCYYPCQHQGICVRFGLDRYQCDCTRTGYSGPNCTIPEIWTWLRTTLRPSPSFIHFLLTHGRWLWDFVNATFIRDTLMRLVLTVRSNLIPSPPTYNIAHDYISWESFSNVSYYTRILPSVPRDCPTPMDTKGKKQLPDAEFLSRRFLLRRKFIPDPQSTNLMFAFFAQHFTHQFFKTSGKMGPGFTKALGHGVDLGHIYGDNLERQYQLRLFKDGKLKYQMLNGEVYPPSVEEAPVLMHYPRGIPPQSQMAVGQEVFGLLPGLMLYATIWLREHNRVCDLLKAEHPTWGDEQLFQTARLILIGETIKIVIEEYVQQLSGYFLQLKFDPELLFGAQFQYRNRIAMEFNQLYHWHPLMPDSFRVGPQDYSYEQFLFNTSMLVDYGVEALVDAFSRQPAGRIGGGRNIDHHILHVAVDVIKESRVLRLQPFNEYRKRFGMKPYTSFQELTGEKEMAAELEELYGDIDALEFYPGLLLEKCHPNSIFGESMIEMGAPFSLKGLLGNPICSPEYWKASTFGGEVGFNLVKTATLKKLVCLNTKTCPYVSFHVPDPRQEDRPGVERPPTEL

Take `O=[N+]([O-])c1cccc2cn[nH]c12` [7-nitroindazole, 7-nitroindazole, reference compound]: in the experiment on NO, the “NO IC50 ± SD” value is recorded as 49.20 ± 0.80 µg/mL.

For `O=C(C=Cc1ccccc1)OCC1OC(OC(=O)C=Cc2ccccc2)C(O)C(O)C1O` [Compound C5, 1,6-dicinnamoyl-O-α-D-glucopyranoside], the IC50 at TNF-R2 was 0.0117 µM; against COX-2 [1], 2.63 µM. In addition, the “NF- KB IC50 ± SD” value with NF-KB turned out to be 0.00607 ± 7e-05 ng/mL. In addition, in the experiment on NO, the “NO IC50 ± SD” value was found to be 38.00 ± 0.04 µg/mL.

`O=C(O)/C=C/c1ccccc1` [Compound C2, (E)-cinnamic acid]: the IC50 is 0.0515 µM at TNF-R2 and 34.6 µM on COX-2 [1]. The “Suppression of NF-KB (in words)” value in the experiment with NF-KB is recorded as “significantly moderate suppression”. Besides, the “NF- KB IC50 ± SD” value with NF-KB came to 0.00877 ± 7e-05 ng/mL. Besides, the “NO IC50 ± SD” value in the experiment with NO came out at 66.00 ± 0.69 µg/mL.

On TNF-R2, `COc1cc(O)c2c(c1)O[C@H](c1ccc(O)cc1)CC2=O` [Compound C1, (2S)-5,4'-dihydroxy-7-methoxyflavanone] had an IC50 of 0.031 µM. In the experiment with NF-KB, the “Suppression of NF-KB (in words)” value is reported as “significantly moderate suppression” and the “NF- KB IC50 ± SD” value worked out at 0.01007 ± 9e-05 ng/mL. For the same molecule, in the experiment with NO, the “NO IC50 ± SD” value came out at 82.00 ± 1.06 µg/mL. Also, the “Inhibitory effects on COX-1 (in words)” value on COX-1 is reported as “moderate inhibitory effects”. Also, on COX-2 [2], the “Inhibitory activity against COX-2 (in words)” value was “no inhibitory activity”. Further, at COX-2 [1], the “COX-2 inhibitory activity (in words)” value is on record as “moderate inhibitory activity” and the IC50 was 11.3 µM.

As to `COc1cc(/C=C/C(=O)CC(=O)/C=C/c2ccc(O)c(OC)c2)ccc1O` [Curcumin, reference compound], the “NF- KB IC50 ± SD” value with NF-KB stood at 0.0078 ± 3e-05 ng/mL.

`COc1cc(O)c2c(c1)O[C@H](c1ccc(O)cc1)[C@@H](O)C2=O` [Compound C4, 7-O-methyl aromadendrin] showed an IC50 at TNF-R2 of 0.0276 µM. Also, in the experiment on NF-KB, the “Suppression of NF-KB (in words)” value is reported as “significantly moderate suppression” and the “NF- KB IC50 ± SD” value was 0.00933 ± 3e-05 ng/mL. The “NO IC50 ± SD” value with NO is on record as 76.40 ± 1.74 µg/mL. In addition, on COX-1, the “Inhibitory effects on COX-1 (in words)” value was “moderate inhibitory effects”. Moreover, the “Inhibitory activity against COX-2 (in words)” value at COX-2 [2] is given as “no inhibitory activity”. On COX-2 [1], the “COX-2 inhibitory activity (in words)” value is “moderate inhibitory activity” and the IC50 is 8.44 µM.

The values above are taken from paper PMC9902548, “In silico and in vitro anti-inflammatory study of phenolic compounds isolated from Eucalyptus maculata resin” (Scientific Reports, 2023).
